≈ marks a conversion by molar mass, not a printed value. One block for each compound: values may come before it.
Legend:
MRSA-ATCC33592 = assay: MIC broth microdilution, MRSA ATCC33592; format: cell-based, Staphylococcus aureus; settings: Staphylococcus aureus; overnight incubation, Mueller-Hinton broth; read-out: MIC MRSA-ATCC33592
Procedure: (§1) Antibacterial activity: The compounds were tested for the minimum inhibitory concentrations (MIC), which is the lowest concentration of a chemical required to inhibit visible microbial growth following overnight incubation. MIC values were determined using broth microdilution method according to the Clinical and Laboratory Standards Institute guidelines (CLSI, 2015, M07-A10). Mueller-Hinton broth was used as a culture medium in all the experiments. Exponentially growing bacterial cells were prepared in Mueller-Hinton broth at a concentration of approximately 5×10^5 CFU/mL. Two-fold serial dilutions of the test compound (8 concentrations ranged between 100-0.78 μg/mL) were tested. […] In each experiment, solvent (DMSO) was used as a negative control, un-treated control (composing of bacteria in Mueller-Hinton broth) was used as a growth control, blank (culture media alone) was used as sterility control. The 96-well microplate with the test compounds was incubated overnight at 37° C. Turbidity in wells indicated bacterial growth.
(§2) The compounds were tested on six MDR Gram-positive bacteria including three clinical isolates of methicillin-resistant Staphylococcus aureus (MRSA-1, MRSA-2 and MRSA-3) and three reference MRSA strains (ATCC33591, ATCC33592 and ATCC700699). They were also tested on three MDR Gram-negative bacteria including New Delhi metallo-beta-lactamase (NDM-1) positive, carbapenem-resistant E. coli (ATCC BAA2469), extended-spectrum beta-lactamase (ESBL) producing, colistin-resistant E. coli (CDC-AR-0346) and carbapenem-resistant Acinetobacter baumannii (ATCC BAA1605), in addition to two non-MDR bacteria from the same species, namely E. coli (ATCC 25922) Acinetobacter baumannii (ATCC 19606).

[1] = tested on: Acinetobacter baumannii ATCC 19606; assay: MIC broth microdilution, A. baumannii ATCC 19606; format: cell-based; settings: Acinetobacter baumannii, ATCC19606; not MDR; overnight incubation
Procedure: as §1, §2

6 MRSA strains = assay: MIC, panel of 6 MRSA strains; format: cell-based; settings: Staphylococcus aureus, across the panel of tested Gram-positive strains, read-out: MIC against all the 6 MRSA strains
Procedure: as §1, §2

MRSA-ATCC33591 = assay: MIC broth microdilution, MRSA ATCC33591; format: cell-based, Staphylococcus aureus; settings: Staphylococcus aureus; overnight incubation, Mueller-Hinton broth; read-out: MIC MRSA-ATCC33591
Procedure: as §1, §2

MDR E. coli strains = assay: MIC, both MDR E. coli strains; format: cell-based; settings: Escherichia coli, ATCCBAA2469; across ATCC BAA2469 and CDC-AR-0346
Procedure: as §1
The compounds were tested on six MDR Gram-positive bacteria including three clinical isolates of methicillin-resistant Staphylococcus aureus (MRSA-1, MRSA-2 and MRSA-3) and three reference MRSA strains (ATCC33591, ATCC33592 and ATCC700699). […]

[2] = tested on: E. coli ATCC BAA2469 (NDM-1 carbapenem-resistant); assay: MIC broth microdilution, E. coli ATCC BAA2469; format: cell-based, Escherichia coli; settings: overnight incubation; for MIC: Escherichia coli, ATCCBAA2469, MDR
Procedure: as §1, §2

[3] = tested on: Acinetobacter baumannii ATCC BAA1605 (carbapenem-resistant); assay: MIC broth microdilution, A. baumannii ATCC BAA1605; format: cell-based; settings: for MIC: Acinetobacter baumannii, ATCCBAA1605, MDR, overnight incubation
Procedure: as §1, §2

E. coli ATCC25922 = assay: MIC broth microdilution, E. coli ATCC25922; format: cell-based, Escherichia coli; settings: Escherichia coli, ATCC25922; not MDR; overnight incubation
Procedure: as §1, §2

MRSA-ATCC700699 (VISA) = assay: MIC broth microdilution, MRSA ATCC700699 (VISA); format: cell-based, Staphylococcus aureus
Procedure: as §1, §2

HELA = assay: MTT cell viability, HELA; format: cell-based; settings: Homo sapiens, cervical cancer, 48 h of drug treatment, average of three experiments
Text: (§3) Cell culture: In this study five different cancer cell lines were used, human lung carcinoma (A549), human breast adenoma (MCF-7), Cervical carcinoma (Hela), hepatocellular carcinoma (Hep3B), and colorectal adenocarcinoma (HCT-116). These cells were obtained from the European Collection of Cell Cultures (ECACC, UK). Hep3B cells were maintained in Dulbecco's Modified Eagle Medium (DMEM: Sigma-Aldrich), and the four other cell lines were maintained in Roswell Park Memorial Institute medium (RPMI, Sigma-Aldrich, St. Louis, Mo., USA), which was supplemented with 10% fetal bovine serum (FBS, Sigma-Aldrich) and 1% penicillin/streptomycin (Sigma-Aldrich). Cells were incubated all the time at 37° C. in a humidified atmosphere of 5% CO2. Cell viability studies: Cell viability was assessed using the MTT assay as described before. In brief, all cancer cell lines were seeded at a density of 4×10^4/well in 96 well flat-bottom plates. After 24 h from seeding, cells were treated with the synthesized compounds and left for an incubation period of 48 h. Upon reaching the indicated time point, the media was removed and replaced with 200 μL fresh media containing 0.5 mg/mL of MTT tetrazolium dye (Sigma-Aldrich). Cells were then incubated with MTT solution for 2 h at 37° C. The resultant formazan crystals were dissolved in 200 μl/well of DMSO and absorbance was measured at 570 nm using a microplate reader (Thermo Scientific).

MCF-7 = assay: MTT cell viability, MCF-7; format: cell-based; settings: Homo sapiens, MCF7; breast cancer; 48 h of drug treatment; average of three experiments
Text: as §3

A549 = assay: MTT cell viability, A549; format: cell-based; settings: Homo sapiens, lung cancer, 48 h of drug treatment, average of three experiments
Text: as §3

HCT-116 = assay: MTT cell viability, HCT-116; format: cell-based; settings: Homo sapiens, colon cancer, 48 h of drug treatment, average of three experiments
Text: as §3

[4] = tested on: MRSA-3 (clinical isolate); assay: MIC broth microdilution, MRSA-3; format: cell-based, Staphylococcus aureus; settings: Staphylococcus aureus, MRSA; overnight incubation, Mueller-Hinton broth; read-out: MIC MRSA-3 (clinical isolate)
Procedure: as §1, §2

[5] = tested on: MRSA-2 (clinical isolate); assay: MIC broth microdilution, MRSA-2; format: cell-based, Staphylococcus aureus; settings: Staphylococcus aureus, MRSA; overnight incubation, Mueller-Hinton broth; read-out: MIC MRSA-2 (clinical isolate)
Procedure: as §1, §2

[6] = tested on: MRSA-1 (clinical isolate); assay: MIC broth microdilution, MRSA-1; format: cell-based, Staphylococcus aureus; settings: Staphylococcus aureus, MRSA; overnight incubation, Mueller-Hinton broth; read-out: MIC MRSA-1 (clinical isolate)
Procedure: as §1, §2

[7] = tested on: E. coli CDC-AR-0346 (ESBL, colistin resistant); assay: MIC broth microdilution, E. coli CDC-AR-0346; format: cell-based, Escherichia coli
Procedure: as §1, §2

HEP3B = assay: MTT cell viability, HEP3B; format: cell-based; settings: Homo sapiens, liver cancer, 48 h of drug treatment, average of three experiments
Text: as §3

SMILES: O=C(O)c1cn(C2CC2)c2cc(N3CCNCC3)c(F)cc2c1=O [Ciprofloxacin, reference compound]
MIC (MRSA-ATCC33592): 0.3 µg/mL (≈ 0.905 µM)
MIC [1]: 0.625 µg/mL (≈ 1.89 µM)
MIC (6 MRSA strains): 0.3 to 32 µg/mL (≈ 0.905 to 96.6 µM)
MIC (MRSA-ATCC33591): 0.3 µg/mL (≈ 0.905 µM)
MIC (MDR E. coli strains): 16 to 100 µg/mL (≈ 48.3 to 302 µM)
MIC [2]: 100 µg/mL (≈ 302 µM)
MIC [3]: 50 µg/mL (≈ 151 µM)
MIC (E. coli ATCC25922): < 0.02 µg/mL

MIC (MRSA-ATCC700699 (VISA); Staphylococcus aureus, strain intermediately resistant to vancomycin, overnight incubation, read-out: MIC MRSA-ATCC700699 (VISA)): 1.56 µg/mL (≈ 3.33 µM)
MIC times less than the MIC of vancomycin (MRSA-ATCC700699 (VISA); VISA strain ATCC 700699, vancomycin 8 μg/mL): ~5 times
MIC (MRSA-ATCC33592): 1.56 µg/mL (≈ 3.33 µM)
MIC [1]: 6.25 µg/mL (≈ 13.3 µM)
IC50 (HELA): 4.625 ± 0.04 µM
MIC (6 MRSA strains): 1.56 µg/mL (≈ 3.33 µM)
IC50 (MCF-7): 5.34 ± 1.8 µM
IC50 (A549): 7.44 ± 0.04 µM
IC50 (HCT-116): 3.02 ± 1.2 µM
MIC (MRSA-ATCC33591): 1.56 µg/mL (≈ 3.33 µM)
MIC [2]: 6.25 to 12.5 µg/mL (≈ 13.3 to 26.7 µM)
MIC E. coli ATCC BAA2469 (NDM-1 carbapenem-resistant) ([2]; MDR): 6.25 µg/mL (≈ 13.3 µM)
MIC [4]: 1.56 µg/mL (≈ 3.33 µM)
MIC [5]: 1.56 µg/mL (≈ 3.33 µM)
MIC fold below that of meropenem ([3]; Acinetobacter baumannii ATCC BAA1605, meropenem 12.5 μg/mL): 2 fold
MIC [3]: 6.25 µg/mL (≈ 13.3 µM)
MIC [6]: 1.56 µg/mL (≈ 3.33 µM)
MIC fold higher than that of colistin ([7]; E. coli CDC-AR-0346, colistin 6.25 μg/mL): 2 fold
MIC ([7]; Escherichia coli, MDR, overnight incubation): 12.5 µg/mL (≈ 26.7 µM)
IC50 (HEP3B): 3.597 ± 0.03 µM
MIC (E. coli ATCC25922): 6.25 µg/mL (≈ 13.3 µM)
SMILES: Fc1ccc2c3c4n(c2c1)[C@@]1(C=C/C(=N\Nc2ccc(C(F)(F)F)cc2)CC1)CC[C@@H]4NCC3 [Compound 1g]
